From US10519177B2, “Heterocyclic compounds and uses thereof” (Plexxikon Inc., priority 2013, dated 2019)

Experiments:
MV-4-11 cells = test: Oncology cell growth assay MV-4-11 (CellTiter Glo); format: cell-based; details: Homo sapiens, MV4-11, 72 h; MV-4-11, 3d growth; read-out: Cell activity (IC50 μM) MV-4-11 3d-Growth
Procedure, shortened: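 Growth read by CellTiter Glo luminescence after 72 h compound treatment of MLL-AF4-bearing MV-4-11 cells (3000/well). Titration: 8 points, 1:3 steps, maximum 10 μM, 0.2% DMSO final. Data normalized to DMSO wells, four-parameter fit gives pIC50.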

BRD4-BD12 (1-477) = BRD4-BD12 (1-477) (Homo sapiens (Human), UniProt O60885); test: Alphascreen binding assay BRD4-BD12; details: BRD4(1 2) H4; read-out: Biochemical activity (IC50 μM) BRD4(1 2) H4
Description: Binding of compounds of formula (I) with bromodomain 2, 3 4 was assessed using Alphascreen binding assay. The inhibition of the interaction between bromodomain and its acetylated target protein (Filippakopoulos P et al. 2012) was measured quantitatively using recombinant BRD proteins, an acetylated Histone 4 peptide and AlphaScreen™ technology. In absence of inhibition the BRD protein bound to AlphaScreen™ nickel chelate acceptor beads can interact with the acetylated Histone 4 peptide which is immobilized by the AlphaScreen™ Streptavidin coated beads. This interaction brings donor and acceptor beads in proximity. The close proximity allows the singlet oxygen produced by laser excitation of the donor beads to reach the acceptor beads and generate a luminescence signal.
Recombinant human bromodomains containing the N-terminal bromodomain (BRD2-BD1 (71-194), BRD3-BD1 (24-144) and BRD4-BD1 (44-164)) or dual bromodomains (BRD4-BD12 (1-477), BRD4-BD12 (1-472)) were prepared and purified as described in protein expression and purification session. The peptide is human Histone H41-21K5AcK8AcK12AcK16Ac-Biotin (Anaspec CA, USA).
Protocol for BRD2, BRD3 and BRD4 assay: All components are prepared in buffer composed of 50 mM HEPES pH 7.5, 100 mM NaCl, 0.01% bovine serum albumin (“BSA”), 0.01% Triton X-100, 2 mM dithiothreitol (“DTT”). 7 μL of Bromodomain protein and 7 μL of peptide are added to wells containing 1 μL of various concentrations of test compounds of formula (I) or DMSO vehicle in an Alphaplate (PerkinElmer GA, USA) and incubated for 1 hour at room temperature. 4 μL donor and acceptor bead mixture is then added with final concentrations of 7.5 μg/ml. 30 minutes after bead addition, Alpha signal is read on the Envision spectrometer (λEx 680 nm, λEm 520-620 nm). Final concentrations of bromodomain proteins and peptide are as shown below.
All data was normalized to the mean of 16 high and 16 low control wells on each plate. A four parameter curve fit of the following formula was then applied: Y=a+(b−a)/(1+(x/c)^d) Where ‘a’ is the minimum, ‘b’ is the maximum, ‘c’ is the pIC50 and ‘d’ is the Hill slope. Protein Expression and Purification
Recombinant human bromodomains containing the N-terminal bromodomain (BRD2-BD1 (71-194), BRD3-BD1 (24-144) and BRD4-BD1 (44-164)) or dual bromodomains (BRD4-BD12 (1-477), BRD4-BD12 (1-472)) were expressed in E. coli cells (in a modified pET vector) with an N-terminal six-His tag and purified using a combination of both IMAC (Ni-affinity) and size exclusion chromatography steps.
Recombinant BRD proteins were expressed using the E. coli strain BL21-CodonPlus (DE3) (Agilent Technologies CA, USA). Cells were grown in Terrific Broth (TB) media to an OD600 of 1.2 at 37° C. at which temperature was reduced to 25° C., protein was induced with 1.0 mM ispropyl-β-D-thiogalactopyranoside (“IPTG”) for 12-18 hours and harvested by centrifugation at 8000×g for 20 minutes. Cells were re-suspended in 0.1M K2PO4 pH 8.0, 250 mM NaCl, 10% Glycerol, 0.75% NP-40, 25 mM Imidazole, 5 mM beta-mercaptoethanol (“BME”) with 0.2 mg/ml Lysosyme, 2.0 mM phenylmethanesulfonyl fluoride (“PMSF”), 25 μg/ml DNAse I, incubated on ice for 30 minutes and lyzed with a cell disruptor (MicroFluidics MA, USA). The lysate was clarified by centrifugation at 20,000×g for 2 hours. The protein was captured with Ni-NTA resin (Life Technologies, USA). Contaminating proteins were washed off with 25 mM Tris-HCl pH 8.3, 250 mM NaCl, 12% Glycerol and 50 mM Imidazole. Following 3× wash steps, protein was eluted step wise using a 50 mM HEPES pH 7.5, 500 mM NaCl and 400 mM Imidazole. The protein was further purified using Gel Filtration column 26/600 Superdex 200 (GE Biosciences NJ, USA) in 50 mM HEPES pH 7.5, 250 mM NaCl. The protein was aliquoted and flash-frozen in liquid Nitrogen.

| Compound | IC50 (MV-4-11 cells) [µM] | IC50 (BRD4-BD12 (1-477)) [µM] |
| --- | --- | --- |
| Cc1noc(C)c1-c1cnc2c(-c3ccc(C(=O)O)cc3)cn(C(c3ccccn3)C3CCCC3)c2c1 (centres unmarked) [P-0995, 4-[1-[cyclopentyl(2-pyridyl)methyl]-6-(3,5-dimethylisoxazol-4-yl)pyrrolo[3,2-b]pyridin-3-yl]benzoic acid] | < 1 | < 1 |
| Cc1noc(C)c1-c1cnc2c(I)cn([C@H](c3ccccn3)C3CC3)c2c1 [P-0988, 4-[1-[(S)-cyclopropyl(2-pyridyl)methyl]-3-iodo-pyrrolo[3,2-b]pyridin-6-yl]-3,5-dimethyl-isoxazole] | < 1 | < 1 |
| COC(=O)Cc1ccc(-c2cn(Cc3ccccn3)c3cc(-c4c(C)noc4C)cnc23)cc1 [P-0965, methyl 2-[4-[6-(3,5-dimethylisoxazol-4-yl)-1-(2-pyridylmethyl)pyrrolo[3,2-b]pyridin-3-yl]phenyl]acetate] | < 1 | < 1 |
| Cc1noc(C)c1-c1cnc2c(-c3ccc(C(C)(C)C#N)cc3)cn(CC3CCC(F)(F)CC3)c2c1 [P-0905, 2-[4-[1-[(4,4-difluorocyclohexyl)methyl]-6-(3,5-dimethylisoxazol-4-yl)pyrrolo[3,2-b]pyridin-3-yl]phenyl]-2-methyl-propanenitrile] | < 1 | < 1 |
| COC(=O)c1ccc(-c2cn(C(c3ccccn3)C3CCCC3)c3cc(-c4c(C)noc4C)cnc23)cc1 (centres unmarked) [P-0993, methyl 4-[1-[cyclopentyl(2-pyridyl)methyl]-6-(3,5-dimethylisoxazol-4-yl)pyrrolo[3,2-b]pyridin-3-yl]benzoate] | < 1 | < 1 |
| CC[C@H](c1ccccn1)n1cc(I)c2ncc(-c3c(C)noc3C)cc21 [P-0956, 4-[3-iodo-1-[(1R)-1-(2-pyridyl)propyl]pyrrolo[3,2-b]pyridin-6-yl]-3,5-dimethyl-isoxazole] | < 1 | < 1 |
| COC(=O)c1ccc(-c2cn(C(c3ccccn3)C3CCC3)c3cc(-c4c(C)noc4C)cnc23)cc1 (centres unmarked) [P-1011, methyl 4-[1-[cyclobutyl(2-pyridyl)methyl]-6-(3,5-dimethylisoxazol-4-yl)pyrrolo[3,2-b]pyridin-3-yl]benzoate] | < 1 | < 1 |
| CNC(=O)c1ccc(-c2cn([C@@H](C)c3ccccn3)c3cc(-c4c(C)noc4C)cnc23)cc1 [P-0977, 4-[6-(3,5-dimethylisoxazol-4-yl)-1-[(1S)-1-(2-pyridyl)ethyl]pyrrolo[3,2-b]pyridin-3-yl]-N-methyl-benzamide] | < 1 | < 1 |
| CC[C@@H](c1ccccn1)n1cc(-c2ccc(C(=O)O)cc2Cl)c2ncc(-c3c(C)noc3C)cc21 [P-1029, 3-chloro-4-[6-(3,5-dimethylisoxazol-4-yl)-1-[(1S)-1-(2-pyridyl)propyl]pyrrolo[3,2-b]pyridin-3-yl]benzoic acid] | < 1 | < 1 |
| [2H]C([2H])([2H])c1noc(C([2H])([2H])[2H])c1-c1cnc2c(-c3ccc(C(=O)O)cc3)cn(CC3CCC(F)(F)CC3)c2c1 [P-0908, 4-[6-[3,5-bis(trideuteriomethyl)isoxazol-4-yl]-1-[(4,4-difluorocyclohexyl)methyl]pyrrolo [3,2-b]pyridin-3-yl]benzoic acid] | < 1 | < 1 |
| COc1cc(-c2cn([C@@H](C)c3ccccn3)c3cc(-c4c(C)noc4C)cnc23)ccc1C(=O)O [P-0938, 4-[6-(3,5-dimethylisoxazol-4-yl)-1-[(1S)-1-(2-pyridyl)ethyl]pyrrolo[3,2-b]pyridin-3-yl]-2-methoxy-benzoic acid] | < 1 | < 1 |
| COC(=O)c1ccc(-c2cn(CC3(C)CCCCC3)c3cc(-c4c(C)noc4C)cnc23)cc1 [P-0914, methyl 4-[6-(3,5-dimethylisoxazol-4-yl)-1-[(1-methylcyclohexyl)methyl]pyrrolo [3,2-b]pyridin-3-yl]benzoate] | 1 to 10 | < 1 |
| Cc1noc(C)c1-c1cnc2c(-c3ccc(CC(=O)O)cc3)cn(Cc3ccccn3)c2c1 [P-0973, 2-[4-[6-(3,5-dimethylisoxazol-4-yl)-1-(2-pyridylmethyl)pyrrolo[3,2-b]pyridin-3-yl]phenyl]acetic acid] | < 1 | < 1 |
| Cc1noc(C)c1-c1cnc2c(-c3ccc(C(=O)O)cc3)cn(Cc3ccc(F)cn3)c2c1 [P-0917, 4-[6-(3,5-dimethylisoxazol-4-yl)-1-[(5-fluoro-2-pyridyl)methyl]pyrrolo[3,2-b]pyridin-3-yl]benzoic acid] | < 1 | < 1 |
| CC[C@@H](c1ccccn1)n1cc(-c2ccc(C(=O)O)cc2F)c2ncc(-c3c(C)noc3C)cc21 [P-1025, 4-[6-(3,5-dimethylisoxazol-4-yl)-1-[(1S)-1-(2-pyridyl)propyl]pyrrolo[3,2-b]pyridin-3-yl]-3-fluoro-benzoic acid] | < 1 | < 1 |
| CC(=O)Nc1ccc(-c2cn([C@@H](C)c3ccccn3)c3cc(-c4c(C)noc4C)cnc23)cc1 [P-0984, N-[4-[6-(3,5-dimethylisoxazol-4-yl)-1-[(1S)-1-(2-pyridyl)ethyl]pyrrolo[3,2-b]pyridin-3-yl]phenyl]acetamide] | < 1 | < 1 |
| COC(=O)Cc1ccc(-c2cn(C(c3ccccc3)c3ccccn3)c3cc(-c4c(C)noc4C)cnc23)cc1 (centres unmarked) [P-0902, methyl 2-[4-[6-(3,5-dimethylisoxazol-4-yl)-1-[phenyl(2-pyridyl)methyl]pyrrolo[3,2-b]pyridin-3-yl]phenyl]acetate] | < 1 | < 1 |
| Cc1noc(C)c1-c1ccc2c(-c3cnn(C)c3)cn(C(c3ccccc3)c3ccccn3)c2c1 (centres unmarked) [P-1040, 3,5-dimethyl-4-[3-(1-methylpyrazol-4-yl)-1-[phenyl(2-pyridyl)methyl]indol-6-yl]isoxazole] | < 1 | < 1 |
| CC[C@@H](c1ccccn1)n1cc(I)c2ncc(-c3c(C)noc3C)cc21 [P-0963, 4-[3-iodo-1-[(1S)-1-(2-pyridyl)propyl]pyrrolo[3,2-b]pyridin-6-yl]-3,5-dimethyl-isoxazole] | < 1 | < 1 |
| COC(=O)Cc1ccc(-c2cn(C(c3ccccn3)C3CCC3)c3cc(-c4c(C)noc4C)cnc23)cc1 (centres unmarked) [P-1013, methyl 2-[4-[1-[cyclobutyl(2-pyridyl)methyl]-6-(3,5-dimethylisoxazol-4-yl)pyrrolo[3,2-b]pyridin-3-yl]phenyl]acetate] | < 1 | < 1 |
| Cc1noc(C)c1-c1ccc2c(-c3ccc(C(=O)O)c(F)c3)cn(C(c3ccccc3)c3ccccn3)c2c1 (centres unmarked) [P-1043, 4-[6-(3,5-dimethylisoxazol-4-yl)-1-[phenyl(2-pyridyl)methyl]indol-3-yl]-2-fluoro-benzoic acid] | < 1 | < 1 |
| Cc1noc(C)c1-c1cnc2c(-c3ccc(C(=O)O)cc3)cn(Cc3ccccc3C#N)c2c1 [P-0923, 4-[1-[(2-cyanophenyl)methyl]-6-(3,5-dimethylisoxazol-4-yl)pyrrolo[3,2-b]pyridin-3-yl]benzoic acid] | < 1 | < 1 |
